Measurements as given in US4609666A, “Aromatase inhibiting derivatives of α,α-bis(4-halophenyl)methyltetrazoles and triazoles” (Eli Lilly and Company, priority 1984, dated 1986).
Where a name gives a salt, the structure may show the parent alone.

Key:
[1] = molecular target: T1, aromatase (Rattus norvegicus, UniProt P22443); experiment: Aromatase inhibition in the rat ovarian microsome assay; type: biochemical; conditions: rat ovarian microsomes; substrate (androstenedione) concentration 0.1 μM
T1 construct: ovarian microsomes are obtained from rats treated with pregnant mares serum gonadotropin; from tissue; host or cells: ovary microsomes from rats treated with pregnant mares serum gonadotropin
T1 sequence (P22443 1-508): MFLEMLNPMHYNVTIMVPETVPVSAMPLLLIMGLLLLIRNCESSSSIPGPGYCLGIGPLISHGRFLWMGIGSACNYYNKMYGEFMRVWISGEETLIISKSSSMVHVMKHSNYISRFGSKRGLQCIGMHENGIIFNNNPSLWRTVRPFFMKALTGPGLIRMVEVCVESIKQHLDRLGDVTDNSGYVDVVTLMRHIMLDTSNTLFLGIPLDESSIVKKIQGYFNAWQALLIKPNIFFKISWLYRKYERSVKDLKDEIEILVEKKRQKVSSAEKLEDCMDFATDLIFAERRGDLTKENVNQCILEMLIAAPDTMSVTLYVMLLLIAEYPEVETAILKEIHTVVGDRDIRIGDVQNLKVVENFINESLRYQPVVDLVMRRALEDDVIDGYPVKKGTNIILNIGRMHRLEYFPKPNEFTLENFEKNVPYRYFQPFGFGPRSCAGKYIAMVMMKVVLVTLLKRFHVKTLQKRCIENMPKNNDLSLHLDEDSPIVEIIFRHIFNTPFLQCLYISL
Protocol: In this test system, ovarian microsomes are obtained from rats treated with pregnant mares serum gonadotropin. Test compounds are added to reaction vials containing 0.1 μM 4-androstene-3,17-dione, 100,000 dpm 1,2[^3 H]-androstenedione, the microsomes and a NADPH generating system. The concentrations of the inhibitors tested ranged between 0.005 and 10 μM.

[2] = system: breast cancer; conditions: known aromatase inhibitors; cited from earlier work

| Compound | EC50 [1] | effect in treatment of breast cancer [2] |
| --- | --- | --- |
| Clc1ccc(C(c2ccc(Cl)cc2)c2cc[nH]n2)cc1 [3-[Bis(4-chlorophenyl)methyl]-1H-pyrazole hydrochloride] | 170 nM | – |
| Clc1ccc(C(c2ccccc2)c2cn[nH]c2)c(Cl)c1 (stereo not shown) [4-[(2,4-Dichlorophenyl)phenylmethyl]-1H-pyrazole] | 310 nM | – |
| CCC1(c2ccc(N)cc2)CCC(=O)NC1=O (stereo not shown) [aminoglutethimide] | – | beneficial effect in treatment of breast cancer |
| C[C@]12C=CC(=O)C=C1CC[C@@H]1[C@@H]2CC[C@]2(C)OC(=O)CC[C@@H]12 [testolactone] | – | beneficial effect in treatment of breast cancer |
